Assay results published in patent US20100240683A1, “COMBINATION THERAPY, COMPOSITION AND METHODS FOR THE TREATMENT OF CARDIOVASCULAR DISORDERS” (Syndromex Ltd., priority 2007, published 2010).
Entries after “also recorded” stand apart in the source; their conditions may differ. Each block holds one compound with its values, some of them ahead of it.

Experiments:
[1] = molecular target: T1, CYP2C19 (Homo sapiens, UniProt P33261); assay: in vitro
[2] = system: Guinea pigs; assay: Hypolipidemic effect in Guinea pigs model (plasma TG, cholesterol, lipoproteins); assay type: in vivo, Guinea pig; conditions: for effect on plasma cholesterol / effect on plasma triglycerides (TG): gavage, days 21 and 22, result in words
Method: • Guinea pigs (400-500 g) were obtained from Harlan (Israel) or Harlan (Netherlands). Animals were treated by gavage with Medica 16αα, Medica 16ββ and Simvastatin as indicated in 1% CMC for the specified treatment periods. During treatment period the animals were weighed and observed daily.
Non-fasted guinea pigs were anesthetized with ketamine (75 mg/kg body weight) and xylazine (6 mg/kg body weight), followed by S.C. abdominal injections of 2% lignocaine. Anesthetized animals were bled into tubes containing EDTA. Plasma chylomicrons were removed by centrifugation (20 min, 30K rpm, TST 55.5 rotor). Plasma TG was assayed by Roche/Hitachi kit. Plasma cholesterol was assayed by Roche Diagnostic's kit.
Chylomicrons-free plasma was subjected to continuous KBr-gradient centrifugation (24 h, 40K rpm, SW41 rotor), followed by fractionating gradient tubes into 0.5 ml fractions. TG, cholesterol and protein of each fraction were measured as described above. […]
Guinea pigs were treated by gavage with M16αα, M16ββ or with Simvastatin, weighed and observed daily. Plasma triglycerides (TG) and cholesterol, as well as plasma lipoproteins and their composition were examined on days 21 and 22 (as specified in the following tables) of the experiments, as described in Experimental procedures. As clearly shown by Table 3 and FIG. 1, treatment with M16αα decreases plasma triglycerides (TG).

[3] = molecular target: T1, CYP2C19; assay: Fluorimetric CYP inhibition assay, CYP2C19-CEC
[4] = molecular target: CYP2D6 (Homo sapiens, UniProt P10635); assay: in vitro
CYP2D6, sequence (P10635 whole entry): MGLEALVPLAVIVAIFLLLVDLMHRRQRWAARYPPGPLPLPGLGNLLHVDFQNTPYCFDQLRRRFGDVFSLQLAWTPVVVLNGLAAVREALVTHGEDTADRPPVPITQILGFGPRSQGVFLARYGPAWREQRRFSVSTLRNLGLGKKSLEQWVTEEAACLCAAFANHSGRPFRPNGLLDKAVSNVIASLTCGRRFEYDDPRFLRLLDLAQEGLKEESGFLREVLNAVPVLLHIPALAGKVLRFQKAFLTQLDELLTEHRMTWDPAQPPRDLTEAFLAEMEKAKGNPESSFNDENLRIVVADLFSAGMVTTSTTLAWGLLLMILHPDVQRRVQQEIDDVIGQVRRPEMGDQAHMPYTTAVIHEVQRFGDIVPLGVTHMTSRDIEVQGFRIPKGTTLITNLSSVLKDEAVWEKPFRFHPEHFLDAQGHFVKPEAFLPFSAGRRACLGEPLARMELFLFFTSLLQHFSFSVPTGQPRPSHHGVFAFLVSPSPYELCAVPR

[5] = molecular target: T2, CYP1A2 (Homo sapiens, UniProt P05177); assay: Fluorimetric CYP inhibition assay, CYP1A2-CEC
T2 sequence (P05177 1-516): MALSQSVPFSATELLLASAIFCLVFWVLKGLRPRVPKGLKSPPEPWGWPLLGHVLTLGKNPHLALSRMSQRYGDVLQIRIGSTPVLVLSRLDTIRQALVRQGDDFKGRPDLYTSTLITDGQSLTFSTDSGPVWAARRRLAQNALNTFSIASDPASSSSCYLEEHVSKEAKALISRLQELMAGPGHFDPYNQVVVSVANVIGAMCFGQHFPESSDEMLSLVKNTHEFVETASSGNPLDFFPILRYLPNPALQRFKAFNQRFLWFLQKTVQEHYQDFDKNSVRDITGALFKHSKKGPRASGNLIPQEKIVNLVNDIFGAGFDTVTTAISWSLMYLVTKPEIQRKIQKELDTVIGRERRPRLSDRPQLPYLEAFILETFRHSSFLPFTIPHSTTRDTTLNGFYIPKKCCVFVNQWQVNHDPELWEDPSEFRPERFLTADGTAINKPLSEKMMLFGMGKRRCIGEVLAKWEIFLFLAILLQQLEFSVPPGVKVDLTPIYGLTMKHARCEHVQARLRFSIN

[6] = molecular target: T3, CYP2B6 (Homo sapiens, UniProt P20813); assay: in vitro
T3 sequence (P20813 1-491): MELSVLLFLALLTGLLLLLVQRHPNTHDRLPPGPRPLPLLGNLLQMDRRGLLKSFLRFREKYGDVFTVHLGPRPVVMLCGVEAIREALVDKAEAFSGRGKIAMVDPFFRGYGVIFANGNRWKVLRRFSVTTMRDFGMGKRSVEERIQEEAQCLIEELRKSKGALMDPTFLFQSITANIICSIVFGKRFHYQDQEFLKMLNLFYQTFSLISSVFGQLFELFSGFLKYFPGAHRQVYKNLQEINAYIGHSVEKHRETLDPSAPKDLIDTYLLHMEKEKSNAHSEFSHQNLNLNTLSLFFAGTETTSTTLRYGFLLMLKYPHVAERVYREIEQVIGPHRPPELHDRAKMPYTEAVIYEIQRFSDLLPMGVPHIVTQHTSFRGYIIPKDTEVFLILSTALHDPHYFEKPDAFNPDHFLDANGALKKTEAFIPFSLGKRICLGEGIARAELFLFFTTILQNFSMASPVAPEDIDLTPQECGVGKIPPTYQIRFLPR

[7] = system: obese dyslipidemic, insulin resistant non-diabetic patients; assay: Sensitization to insulin in obese dyslipidemic, insulin resistant non-diabetic patients; assay type: in vivo, human
Method: Five obese dyslipidemic, insulin resistant non-diabetic patients were subjected to 4 weeks maintenance period on placebo followed by treatment p.o. with increasing daily doses ranging from 30-600 mg M16ββ per dose for a period of 4 weeks.

[8] = system: healthy male volunteers; assay: Evaluation of safety clinical and laboratory parameters in healthy male volunteers; assay type: in vivo, human; conditions: 1 to 4 weeks, varying doses, during treatment and one month after
Method: Fifteen healthy male volunteers aged 25-52 were treated for periods ranging from 1 to 4 weeks with varying doses of M16ββ.

[9] = gavage 10 mg/kgbw, 21 days, n = 12
[10] = gavage 24 mg/kg/bw, 22 days, n = 10
[11] = p.o. 30-600 mg per dose daily, 4 weeks

T1 sequence (P33261 whole entry): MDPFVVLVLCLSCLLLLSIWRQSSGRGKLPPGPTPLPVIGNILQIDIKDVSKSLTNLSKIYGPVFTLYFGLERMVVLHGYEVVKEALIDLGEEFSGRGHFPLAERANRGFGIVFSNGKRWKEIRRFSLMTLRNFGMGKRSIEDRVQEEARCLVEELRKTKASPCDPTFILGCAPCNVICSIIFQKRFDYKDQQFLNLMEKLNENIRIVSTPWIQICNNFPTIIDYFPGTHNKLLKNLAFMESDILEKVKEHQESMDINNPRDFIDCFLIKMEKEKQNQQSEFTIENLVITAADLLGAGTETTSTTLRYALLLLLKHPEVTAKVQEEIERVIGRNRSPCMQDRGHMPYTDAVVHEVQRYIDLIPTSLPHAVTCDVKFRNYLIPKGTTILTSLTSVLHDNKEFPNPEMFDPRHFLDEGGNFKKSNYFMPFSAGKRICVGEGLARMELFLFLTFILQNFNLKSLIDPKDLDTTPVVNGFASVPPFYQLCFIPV

inhibition at 0.05 μM ([1]; % Inhibition (set 1)): 0%
inhibition at 0.41 μM ([1]; % Inhibition (set 1)): 0%
inhibition at 1.23 μM ([1]; % Inhibition (set 1)): 0%
inhibition at 3.7 μM ([1]; % Inhibition (set 1)): 0%
inhibition at 11.11 μM ([1]; % Inhibition (set 1)): 3%
inhibition at 33.33 μM ([1]; % Inhibition (set 1)): 57%
inhibition at 100 μM ([1]; % Inhibition (set 1)): 63%
inhibition at 0.05 μM ([1]; % Inhibition (set 2)): 1%
inhibition at 0.41 μM ([1]; % Inhibition (set 2)): 2%
inhibition at 1.23 μM ([1]; % Inhibition (set 2)): 4%
inhibition at 3.7 μM ([1]; % Inhibition (set 2)): 4%
inhibition at 11.11 μM ([1]; % Inhibition (set 2)): 12%
inhibition at 33.33 μM ([1]; % Inhibition (set 2)): 43%
inhibition at 100 μM ([1]; % Inhibition (set 2)): 70%
Weight gain [2, 9]: 201 ± 8 g
IC50 [3]: 46 µM
inhibition at 0.05 μM ([4]; % Inhibition (set 1)): 0%
inhibition at 0.41 μM ([4]; % Inhibition (set 1)): 0%
inhibition at 1.23 μM ([4]; % Inhibition (set 1)): 0%
inhibition at 3.7 μM ([4]; % Inhibition (set 1)): 0%
inhibition at 11.11 μM ([4]; % Inhibition (set 1)): 3%
inhibition at 33.33 μM ([4]; % Inhibition (set 1)): 11%
inhibition at 100 μM ([4]; % Inhibition (set 1)): 7%
inhibition at 0.05 μM ([4]; % Inhibition (set 2)): 0%
inhibition at 0.41 μM ([4]; % Inhibition (set 2)): 0%
inhibition at 1.23 μM ([4]; % Inhibition (set 2)): 0%
inhibition at 3.7 μM ([4]; % Inhibition (set 2)): 0%
inhibition at 11.11 μM ([4]; % Inhibition (set 2)): 2%
inhibition at 33.33 μM ([4]; % Inhibition (set 2)): 15%
inhibition at 100 μM ([4]; % Inhibition (set 2)): 0%
IC50 [5]: > 100 µM
inhibition at 0.05 μM ([6]; % Inhibition (set 1)): 0%
inhibition at 0.41 μM ([6]; % Inhibition (set 1)): 7%
inhibition at 1.23 μM ([6]; % Inhibition (set 1)): 4%
inhibition at 3.7 μM ([6]; % Inhibition (set 1)): 29%
inhibition at 11.11 μM ([6]; % Inhibition (set 1)): 8%
inhibition at 33.33 μM ([6]; % Inhibition (set 1)): 17%
inhibition at 100 μM ([6]; % Inhibition (set 1)): 27%
inhibition at 0.05 μM ([6]; % Inhibition (set 2)): 2%
inhibition at 0.41 μM ([6]; % Inhibition (set 2)): 0%
inhibition at 1.23 μM ([6]; % Inhibition (set 2)): 3%
inhibition at 3.7 μM ([6]; % Inhibition (set 2)): 2%
inhibition at 11.11 μM ([6]; % Inhibition (set 2)): 8%
inhibition at 33.33 μM ([6]; % Inhibition (set 2)): 12%
inhibition at 100 μM ([6]; % Inhibition (set 2)): 28%
SMILES: CC(C)(CCCCCCCCCCCCC(C)(C)C(=O)O)C(=O)O [M16αα, 2,2,15,15-tetramethylhexadecane-1,16-dioic acid]
Liver/body weight % [2, 9]: 6.3 ± 0.1%
effect on plasma cholesterol [2]: pronounced decrease
effect on plasma triglycerides (TG) [2]: reduces; also recorded: decreases
effect on LDL-cholesterol levels ([2]; lipoprotein profile, FIG. 2, result in words): reduces

inhibition at 0.05 μM ([1]; % Inhibition (set 1)): 0%
inhibition at 0.41 μM ([1]; % Inhibition (set 1)): 5%
inhibition at 1.23 μM ([1]; % Inhibition (set 1)): 4%
inhibition at 3.7 μM ([1]; % Inhibition (set 1)): 0%
inhibition at 11.11 μM ([1]; % Inhibition (set 1)): 0%
inhibition at 33.33 μM ([1]; % Inhibition (set 1)): 1%
inhibition at 100 μM ([1]; % Inhibition (set 1)): 21%
inhibition at 0.05 μM ([1]; % Inhibition (set 2)): 0%
inhibition at 0.41 μM ([1]; % Inhibition (set 2)): 1%
inhibition at 1.23 μM ([1]; % Inhibition (set 2)): 0%
inhibition at 3.7 μM ([1]; % Inhibition (set 2)): 0%
inhibition at 11.11 μM ([1]; % Inhibition (set 2)): 0%
inhibition at 33.33 μM ([1]; % Inhibition (set 2)): 1%
inhibition at 100 μM ([1]; % Inhibition (set 2)): 7%
Weight gain [2, 10]: 173 ± 8.5 g
IC50 [3]: > 100 µM
inhibition at 0.05 μM ([4]; % Inhibition (set 1)): 0%
inhibition at 0.41 μM ([4]; % Inhibition (set 1)): 0%
inhibition at 1.23 μM ([4]; % Inhibition (set 1)): 0%
inhibition at 3.7 μM ([4]; % Inhibition (set 1)): 0%
inhibition at 11.11 μM ([4]; % Inhibition (set 1)): 10%
inhibition at 33.33 μM ([4]; % Inhibition (set 1)): 17%
inhibition at 100 μM ([4]; % Inhibition (set 1)): 10%
inhibition at 0.05 μM ([4]; % Inhibition (set 2)): 0%
inhibition at 0.41 μM ([4]; % Inhibition (set 2)): 0%
inhibition at 1.23 μM ([4]; % Inhibition (set 2)): 0%
inhibition at 3.7 μM ([4]; % Inhibition (set 2)): 1%
inhibition at 11.11 μM ([4]; % Inhibition (set 2)): 6%
inhibition at 33.33 μM ([4]; % Inhibition (set 2)): 14%
inhibition at 100 μM ([4]; % Inhibition (set 2)): 19%
IC50 [5]: > 100 µM
inhibition at 0.05 μM ([6]; % Inhibition (set 1)): 1%
inhibition at 0.41 μM ([6]; % Inhibition (set 1)): 1%
inhibition at 1.23 μM ([6]; % Inhibition (set 1)): 4%
inhibition at 3.7 μM ([6]; % Inhibition (set 1)): 0%
inhibition at 11.11 μM ([6]; % Inhibition (set 1)): 5%
inhibition at 33.33 μM ([6]; % Inhibition (set 1)): 7%
inhibition at 100 μM ([6]; % Inhibition (set 1)): 20%
inhibition at 0.05 μM ([6]; % Inhibition (set 2)): 0%
inhibition at 0.41 μM ([6]; % Inhibition (set 2)): 0%
inhibition at 1.23 μM ([6]; % Inhibition (set 2)): 4%
inhibition at 3.7 μM ([6]; % Inhibition (set 2)): 0%
inhibition at 11.11 μM ([6]; % Inhibition (set 2)): 6%
inhibition at 33.33 μM ([6]; % Inhibition (set 2)): 7%
inhibition at 100 μM ([6]; % Inhibition (set 2)): 19%
SMILES: CC(C)(CCCCCCCCCCC(C)(C)CC(=O)O)CC(=O)O [M16ββ, 3,3,14,14-tetramethylhexadecane-1,16-dioic acid]
Liver/body weight % [2, 10]: 5.8 ± 0.2%
Plasma cholesterol [2, 10]: 31 ± 2.2 mg %
effect on plasma cholesterol [2]: small but significant decrease
effect on plasma triglycerides (TG) [2]: clear decrease
hypolipidemic efficacy ([7]; at daily doses below 200 mg): substantial hypolipidemic efficacy
HOMA (homeostatic model assessment) [7, 11]: decrease
LDL-C [7, 11]: no change
VLDL-C [7, 11]: robust decrease
glucose uptake [7, 11]: increased
plasma insulin clearance [7, 11]: increase
plasma insulin levels [7, 11]: decrease
sensitization to insulin [7, 11]: increased sensitization to insulin
tolerability [7, 11]: well tolerated in all dosages
drug-related changes in safety clinical (body weight, blood pressure, pulse, ECG) and laboratory (hematology, blood chemistry, urinary analysis) parameters [8]: no drug-related changes were detected
